The inhibition is the drop in the measured response relative to a control, in per cent.

For 24 compounds, inhibition results are on record in US8748426B2, “Inhibitors of diacylglycerol acyl transferase” (Piramal Enterprises Limited, priority 2009, dated 2014).

In this assay the target is T1, hDGAT1 (Homo sapiens, UniProt O75907).
T1 sequence (O75907 1-488): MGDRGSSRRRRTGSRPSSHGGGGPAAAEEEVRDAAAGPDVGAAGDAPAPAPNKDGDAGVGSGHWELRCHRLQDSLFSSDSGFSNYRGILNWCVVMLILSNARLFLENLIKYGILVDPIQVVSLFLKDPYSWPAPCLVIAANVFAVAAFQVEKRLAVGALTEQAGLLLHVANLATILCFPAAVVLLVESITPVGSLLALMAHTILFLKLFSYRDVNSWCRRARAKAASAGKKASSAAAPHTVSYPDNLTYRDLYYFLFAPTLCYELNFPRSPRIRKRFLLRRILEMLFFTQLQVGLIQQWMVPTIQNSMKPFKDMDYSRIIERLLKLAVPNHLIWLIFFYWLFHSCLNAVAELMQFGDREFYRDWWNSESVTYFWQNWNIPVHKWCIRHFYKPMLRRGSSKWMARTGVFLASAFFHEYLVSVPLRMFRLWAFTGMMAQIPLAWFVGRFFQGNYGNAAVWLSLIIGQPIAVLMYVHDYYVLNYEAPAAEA
Description: In-vitro DGAT1 assay (14C oleoyl CoA, hDGAT1 microsomes from Sf9 cells). As to conditions: read-out: % Inhibition of hDGAT1.
As for `CC(C)[C@@H](C(=O)O)N1Cc2ccc(-c3ccc(NC(=O)c4ccc(N5CCOCC5)nc4)cc3)cc2C1=O` [Example 213, (S)-3-Methyl-2-(6-(4-(6-morpholinonicotinamido)phenyl)-1-oxoisoindolin-2-yl)butanoic acid], the inhibition at 1 µM lay in the range of 10 to 50%.
The value for `CC(C)[C@@H](C(=O)O)N1Cc2ccc(-c3ccc(NC(=O)c4ccc(N5CCCCC5)nc4)cc3)cc2C1=O` [Example 215, (S)-3-Methyl-2-(1-oxo-6-(4-(6-(piperidin-1-yl)nicotinamido)phenyl)isoindolin-2-yl)butanoic acid] was > 50%; that for `CC(C)[C@@H](C(=O)O)N1Cc2ccc(-c3ccc(NC(=O)c4ccc(N5CCCC5)nc4)cc3)cc2C1=O` [Example 217, (S)-3-Methyl-2-(1-oxo-6-(4-(6-(pyrrolidin-1-yl)nicotinamido)phenyl)isoindolin-2-yl)butanoic acid] was > 50%.
Turning to `CC(C)[C@@H](C(=O)O)N1Cc2cc(-c3ccc(NC(=O)Nc4ccc(F)cc4)cc3)ccc2C1=O` [Example 225, (S)-2-(5-(4-(3-(4-Fluorophenyl)ureido)phenyl)-1-oxoisoindolin-2-yl)-3-methylbutanoic acid], the inhibition at 1 µM was > 50%.
With `CC(C)[C@@H](C(=O)O)N1Cc2cc(-c3ccc(NC(=O)Nc4ccccc4F)cc3)ccc2C1=O` [Example 227, (S)-2-(5-(4-(3-(2-Fluorophenyl)ureido)phenyl)-1-oxoisoindolin-2-yl)-3-methyl butanoic acid], the inhibition at 1 µM is > 50%.
The value for `CC(C)[C@@H](C(=O)O)N1Cc2cc(-c3ccc(NC(=O)Nc4cccc(F)c4)cc3)ccc2C1=O` [Example 229, (S)-2-(5-(4-(3-(3-Fluorophenyl)ureido)phenyl)-1-oxoisoindolin-2-yl)-3-methyl butanoic acid] was > 50%.
On to `CC(C)[C@@H](C(=O)O)N1Cc2cc(-c3ccc(NC(=O)Nc4ccccc4)cc3)ccc2C1=O` [Example 231, (S)-3-Methyl-2-(1-oxo-5-(4-(3-phenylureido)phenyl)isoindolin-2-yl)butanoic acid], for which the inhibition at 1 µM lay in the range of 10 to 50%.
For `CC(C)[C@@H](C(=O)O)N1Cc2cc(-c3ccc(NC(=O)NCc4ccccc4)cc3)ccc2C1=O` [Example 233, (S)-2-(5-(4-(3-Benzylureido)phenyl)-1-oxoisoindolin-2-yl)-3-methylbutanoic acid], the inhibition at 1 µM lay within 10 to 50%.
`CC(C)[C@@H](C(=O)O)N1Cc2cc(-c3ccc(NC(=O)NC4CCCCC4)cc3)ccc2C1=O` [Example 235, (S)-2-(5-(4-(3-Cyclohexylureido)phenyl)-1-oxoisoindolin-2-yl)-3-methyl butanoic acid]: the inhibition at 1 µM lay in the range of 10 to 50%.
The value for `CC(C)[C@@H](C(=O)O)N1Cc2cc(-c3ccc(NC(=O)Nc4ccc(F)cc4F)cc3)ccc2C1=O` [Example 237, (S)-2-(5-(4-(3-(2,4-Difluorophenyl)ureido)phenyl)-1-oxoisoindolin-2-yl)-3-methylbutanoic acid] was > 50%; that for `CC(C)[C@@H](C(=O)O)N1Cc2cc(-c3ccc(NC(=O)Nc4ccc(F)c(F)c4)cc3)ccc2C1=O` [Example 239, (S)-2-(5-(4-(3-(3,4-Difluorophenyl)ureido)phenyl)-1-oxoisoindolin-2-yl)-3-methylbutanoic acid] was > 50%; that for `Cc1ccc(NC(=O)Nc2ccc(-c3ccc4c(c3)CN([C@H](C(=O)O)C(C)C)C4=O)cc2)cc1` [Example 241, (S)-3-Methyl-2-(1-oxo-5-(4-(3-p-tolylureido)phenyl)isoindolin-2-yl)butanoic acid] was > 50%.
The value for `Cc1cccc(NC(=O)Nc2ccc(-c3ccc4c(c3)CN([C@H](C(=O)O)C(C)C)C4=O)cc2)c1` [Example 243, (S)-3-Methyl-2-(1-oxo-5-(4-(3-m-tolylureido)phenyl)isoindolin-2-yl)butanoic acid] was > 50%; that for `CC(C)[C@@H](C(=O)O)N1Cc2cc(-c3ccc(NC(=O)Nc4ccc(C(F)(F)F)cc4)cc3)ccc2C1=O` [Example 245, (S)-3-Methyl-2-(1-oxo-5-(4-(3-(4-(trifluoromethyl)phenyl)ureido)phenyl)isoindolin-2-yl)butanoic acid] was > 50%; that for `CC(C)[C@@H](C(=O)O)N1Cc2cc(-c3ccc(NC(=O)Nc4cccc(C(F)(F)F)c4)cc3)ccc2C1=O` [Example 247, (S)-3-Methyl-2-(1-oxo-5-(4-(3-(3-(trifluoromethyl)phenyl)ureido)phenyl)isoindolin-2-yl)butanoic acid] was > 50%.
The value for `COc1ccc(NC(=O)Nc2ccc(-c3ccc4c(c3)CN([C@H](C(=O)O)C(C)C)C4=O)cc2)cc1` [Example 249, (S)-2-(5-(4-(3-(4-Methoxyphenyl)ureido)phenyl)-1-oxoisoindolin-2-yl)-3-methylbutanoic acid] was > 50%.
With `COc1cccc(NC(=O)Nc2ccc(-c3ccc4c(c3)CN([C@H](C(=O)O)C(C)C)C4=O)cc2)c1` [Example 251, (S)-2-(5-(4-(3-(3-Methoxyphenyl)ureido)phenyl)-1-oxoisoindolin-2-yl)-3-methylbutanoic acid], the inhibition at 1 µM was > 50%.
In the case of `CC(C)[C@@H](C(=O)O)N1Cc2cc(-c3ccc(NC(=O)Nc4ccc(C#N)cc4)cc3)ccc2C1=O` [Example 253, (S)-2-(5-(4-(3-(4-Cyanophenyl)ureido)phenyl)-1-oxoisoindolin-2-yl)-3-methylbutanoic acid] it was > 50%; in that of `CC(C)[C@@H](C(=O)O)N1Cc2cc(-c3ccc(NC(=O)Nc4cccc(C#N)c4)cc3)ccc2C1=O` [Example 255, (S)-2-(5-(4-(3-(3-Cyanophenyl)ureido)phenyl)-1-oxoisoindolin-2-yl)-3-methylbutanoic acid], > 50%.
For the compound `CC(C)[C@@H](C(=O)O)N1Cc2cc(-c3ccc(NC(=S)Nc4cccc(F)c4)cc3)ccc2C1=O` [Example 259, (S)-2-(5-(4-(3-(3-Fluorophenyl)thioureido)phenyl)-1-oxoisoindolin-2-yl)-3-methyl butanoic acid], the inhibition at 1 µM was in the range of 10 to 50%.
The value for `COc1ccc(NC(=S)Nc2ccc(-c3ccc4c(c3)CN([C@H](C(=O)O)C(C)C)C4=O)cc2)cc1` [Example 261, (S)-2-(5-(4-(3-(4-Methoxyphenyl)thioureido)phenyl)-1-oxoisoindolin-2-yl)-3-methylbutanoic acid] was 10 to 50%; that for `COc1cccc(NC(=S)Nc2ccc(-c3ccc4c(c3)CN([C@H](C(=O)O)C(C)C)C4=O)cc2)c1` [Example 263, (S)-2-(5-(4-(3-(3-Methoxyphenyl)thioureido)phenyl)-1-oxoisoindolin-2-yl)-3-methyl butanoic acid] was 10 to 50%; that for `CC(C)[C@@H](C(=O)O)N1Cc2cc(-c3ccc(NC(=S)Nc4ccc(Cl)cc4)cc3)ccc2C1=O` [Example 265, (S)-2-(5-(4-(3-(4-Chlorophenyl)thioureido)phenyl)-1-oxoisoindolin-2-yl)-3-methylbutanoic acid] was 10 to 50%.
For the compound `CC(C)[C@@H](C(=O)O)N1Cc2cc(-c3ccc(NC(=S)Nc4cccc(Cl)c4)cc3)ccc2C1=O` [Example 267, (S)-2-(5-(4-(3-(3-Chlorophenyl)thioureido)phenyl)-1-oxoisoindolin-2-yl)-3-methylbutanoic acid], the inhibition at 1 µM lay in the range of 10 to 50%.
